Assay results: publication PMC6675120, “Potent and selective inhibitors for M32 metallocarboxypeptidases identified from high-throughput screening of anti-kinetoplastid chemical boxes” (PLoS Neglected Tropical Diseases, 2019)
Several values for one entry are separate records, joined by “and”; a condition that tells them apart may be missing. Identical values can stand only once. Like-named read-outs stand apart in the source and are kept apart here.

How the values were obtained:
[1] = biological target: TbMCP-1 (Trypanosoma brucei, UniProt Q386R0); test: Continuous fluorogenic (FRET) TbMCP-1 assay with Abz-RFFK(Dnp)-OH, primary and secondary screening; assay type: biochemical; conditions: for EDTA control (RFU/sec) Mean: EDTA final concentration 31,25 mM, inhibition control; for TbMCP-1 2º/1º ratio: secondary (31,5 µM) / primary (25 µM) inhibition; for TbMCP-1 Secondary screening Inhibition (%) / inhibition: single inhibitor concentration 31,5 µM; for TbMCP-1 Hill Slope: four-parameter Hill fit of dose-response curve; for inhibition at 25 µM: read-out: TbMCP-1 Primary screening Inhibition (%)
Method: (§1) TcMCP-1 (MEROPS ID: M32.003) and TbMCP-1 were expressed as GST fusion proteins in E. coli BL21 (DE3) Codon Plus and purified as previously described.
(§2) TbMCP-1 and TcMCP-1 activities were assayed fluorometrically with Abz-RFFK(Dnp)-OH and Abz-LKFK(Dnp)-OH substrates, respectively, in 100 mM MOPS pH 7,2 containing 0,01% Triton X-100. Assays were performed in solid black 384-well plates (final reaction volume ~80 μL) and the hydrolysis of the K(Dnp)-OH group was monitored continuously at 30 °C with a Beckman Coulter DTX 880 Multimode Reader (Radnor, Pennsylvania, USA) using standard 320 nm excitation and 420 nm emission filter set.
(§3) In all cases, EDTA (final concentration 31,25 mM) was used as positive inhibition control.
(§4) Then, 40 μL of 100 mM MOPS, 0,01% Triton X-100 pH 7,2 containing TbMCP-1 (2,50 nM) or TcMCP-1 (0,34 nM) were added to each well, plates were homogenized (30 seg, orbital, medium intensity) and each well subjected to a single autofluorescence read (ex/em = 320/420 nm). Plates were incubated in darkness for 15 min at 30 °C and then 40 μL of Abz-RFFK(Dnp)-OH (4 μM) or Abz-LKFK(Dnp)-OH (0,8 μM) in assay buffer were added to each well to start the reaction. After homogenization (30 seg, orbital, medium intensity), the fluorescence of the Abz group (ortho-aminobenzoic acid) (ex/em = 320/420 nm) was acquired kinetically for each well (8 read cycles, one cycle every 300 seconds). Considering our previous experiences, the auto-fluorescent cut-off was arbitrarily set at 2x10^5 RFU to discard highly interfering compounds. All compounds were assayed in singlet (without replicates) due to the limited availability of stocks.
(§5) Raw screening measurements were used to determine the slope (dF/dt) of progression curves by linear regression for control and non-interfering compound wells. In the case of control-dependent hit selection criteria, percent inhibition percentage (%Inh) was calculated for each compound according to the following equation: Inh=100∙[1−(dF/dt^WELL−μ^C−)/(μ^C+−μ^C−)] (1) where dF/dt^WELL represents the slope of each compound well and μ^C+ and μ^C− the average of MCP (no-inhibition) and substrate (no-enzyme) controls, respectively.
(§6) To avoid any positional and/or association bias, we randomly defined the row position for each compound. One μL of compounds stock (10 mM in DMSO) and EDTA (31,25 mM) were added to the first well of column 1, followed by addition of 40 μL of 100 mM MOPS, 0,01% Triton X-100 pH 7,2 buffer. After addition of 20 μL of the same buffer to subsequent wells of the plate, 22 serial 2-fold dilutions were made horizontally. The last two positions of every row were used, alternatively, for C^+ and C^− controls to reduce any positional and/or association bias. Then, 20 μL of activity buffer containing TbMCP-1 or TcMCP-1 were added to each well, except for those corresponding to C^−; completed with 20 μL of activity buffer. After homogenization, 15 minutes of incubation at 30°C and autofluorescence measurement, the substrate (in activity buffer) was added to the previous mix. Data collection and processing were performed exactly as described above. Percentage of M32 MCPs residual activity was calculated for each condition according to the following equation: %Res.Act^MCP=100∙[(dF/dt^WELL−μ^C−)/(μ^C+−μ^C−)] (2) where dF/dt^WELL represents the slope of each compound well and μ^C+ and μ^C− the average of MCP (no-inhibition) and substrate (no-enzyme) controls, respectively.

[2] = biological target: TcMCP-1 (Trypanosoma cruzi, UniProt Q6ZXC0); test: Continuous fluorogenic (FRET) TcMCP-1 assay with Abz-LKFK(Dnp)-OH, primary and secondary screening; assay type: biochemical; set-up: inhibition: dose or concentration left out as unconfirmed; conditions: for EDTA control (RFU/sec) Mean: EDTA final concentration 31,25 mM, inhibition control; for TcMCP-1 Hill Slope: four-parameter Hill fit of dose-response curve; for TcMCP-1 2º/1º ratio: secondary (31,5 µM) / primary (25 µM) inhibition; for TcMCP-1 Primary screening Inhibition (%) / inhibition at 25 µM: single inhibitor concentration 25 µM; for TcMCP-1 Secondary screening Inhibition (%): single inhibitor concentration 31,5 µM; for inhibition: read-out: TcMCP-1 Secondary screening Inhibition (%)
Method: as §1, §2, §3, §4, §5
as §6, with “Compounds selected from primary screening were re-tested in a dose-response manner (final concentration ranging from […] to 62,5 μM) using identical assay conditions. To” for “To”

[3] = secondary screening, two-fold dilutions 7,5 pM to 62,5 μM, KM/[S] ~ 1, no replicates
[4] = single inhibitor concentration 25 µM

TbMCP-1, sequence (Q386R0 entry or part of it): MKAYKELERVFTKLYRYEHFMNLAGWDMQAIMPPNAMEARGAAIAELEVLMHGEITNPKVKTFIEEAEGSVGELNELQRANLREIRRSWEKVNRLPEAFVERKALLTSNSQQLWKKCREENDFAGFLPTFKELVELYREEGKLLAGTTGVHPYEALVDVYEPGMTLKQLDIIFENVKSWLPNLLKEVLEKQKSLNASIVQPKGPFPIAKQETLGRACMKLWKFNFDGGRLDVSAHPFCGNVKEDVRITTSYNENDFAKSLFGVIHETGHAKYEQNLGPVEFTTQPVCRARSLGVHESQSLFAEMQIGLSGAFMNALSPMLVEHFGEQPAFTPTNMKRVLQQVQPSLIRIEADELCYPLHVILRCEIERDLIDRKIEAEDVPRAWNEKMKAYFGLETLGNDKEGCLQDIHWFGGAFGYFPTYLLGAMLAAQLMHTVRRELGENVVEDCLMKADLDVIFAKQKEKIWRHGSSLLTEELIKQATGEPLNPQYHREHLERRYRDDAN
TcMCP-1, sequence (Q6ZXC0 entry or part of it): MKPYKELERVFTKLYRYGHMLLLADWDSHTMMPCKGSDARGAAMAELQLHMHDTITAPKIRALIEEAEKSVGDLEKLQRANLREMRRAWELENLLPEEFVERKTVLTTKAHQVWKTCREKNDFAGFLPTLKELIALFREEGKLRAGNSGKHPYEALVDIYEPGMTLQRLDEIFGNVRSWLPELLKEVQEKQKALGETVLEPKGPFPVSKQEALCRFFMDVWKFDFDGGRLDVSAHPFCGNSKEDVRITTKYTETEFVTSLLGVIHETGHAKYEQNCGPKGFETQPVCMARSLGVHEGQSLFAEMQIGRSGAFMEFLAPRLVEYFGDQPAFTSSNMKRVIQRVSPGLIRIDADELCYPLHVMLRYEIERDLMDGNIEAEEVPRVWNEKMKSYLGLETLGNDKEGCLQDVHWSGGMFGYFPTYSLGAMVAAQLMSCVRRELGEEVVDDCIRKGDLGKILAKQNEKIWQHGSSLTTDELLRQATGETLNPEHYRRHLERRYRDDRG

Row | SMILES | TbMCP-1 2º/1º ratio [1] | TbMCP-1 Secondary screening Inhibition (%) [1] | IC50 [2] | TcMCP-1 Hill Slope [2] | TcMCP-1 2º/1º ratio [2] | IC50 [2, 3] | TcMCP-1 Primary screening Inhibition (%) [2] | TcMCP-1 Secondary screening Inhibition (%) [2] | IC50 [1] | TbMCP-1 Hill Slope [1] | inhibition at 25 µM [1, 4] | inhibition [1] | TbMCP-1 Primary screening Inhibition (%) [1, 4] | also measured
1 | O=C(O)CN(CCN(CC(=O)O)CC(=O)O)CC(=O)O [EDTA, reference compound] |  |  |  |  |  |  |  |  |  |  |  |  |  | EDTA control (RFU/sec) Mean ([1]; Plate 1): 0,13 RFU/sec; EDTA control (RFU/sec) Mean ([1]; Plate 2): 0,39 RFU/sec; EDTA control (RFU/sec) Mean ([2]; Plate 1): 1,28 RFU/sec; EDTA control (RFU/sec) Mean ([2]; Plate 2): 2,32 RFU/sec
2 | O=C(Nc1nc2cc(Cl)ccc2o1)c1cccc(Cl)c1 [TCMDC-143172] | -0,04 | -1,57% | 11.2 µM | -2,825 | 1,30 | ~10 µM | 65,01% | 84,56% |  |  |  |  |  | TbMCP-1 Primary screening Inhibition (%) ([1]; single inhibitor concentration 25 µM, 25 µM): 42,44%
3 | O=c1[nH]c(C=Cc2cccc(OCCOc3ccccc3)c2)nc(O)c1[N+](=O)[O-] [TCMDC-143209] | 0,86 |  | 4180 µM | -1,019 | 1,09 | ≤ 10 µM |  |  | 28.3 µM | -1,2405 | 50% | 42.9% |  | inhibition [2]: 92.5%; inhibition at 25 µM [2]: 85%
4 | CCn1c(-c2nonc2N)nc2c(C(C)O)ncc(OC(CN)c3ccccc3)c21 (centres unmarked) [TCMDC-143323] | 1,00 |  |  |  |  |  |  |  |  | -0,894 | 87.2% | 87% |  | inhibition on TcMCP-1 [2]: < 30%
5 | Cl.NS(=O)(=O)c1ccc(Nc2ncc3cccc(OC4CCNCC4)c3n2)cc1 [TCMDC-143382] | 0,99 | 57,14% | 20.6 µM | -0,7277 | 1,18 |  | 53,63% | 63,12% | 22.6 µM | -0,7258 |  |  | 57,82% | 
6 | CS(=O)(=O)c1cccc(CNC(=O)c2cncc(N3CCN(c4ccc(F)cc4)CC3)c2)c1 [TCMDC-143385] |  |  |  | -0,9614 | 1,88 | ≤ 10 µM and ~10 µM |  |  |  |  |  |  |  | inhibition at 25 µM [1]: < 40%; inhibition [2]: 80.8%; inhibition at 25 µM [2]: 42.9%
7 | O=C(c1cccc(Cl)c1Cl)N1CCn2c1nc(-c1ccncc1)cc2=O [TCMDC-143409] | 1,13 |  |  |  |  |  |  |  |  | -1,2409 | 68.9% | 78% |  | IC50 [1, 3]: 10.4 µM; inhibition on TcMCP-1 [2]: < 30%
8 | Fc1ccccc1N1CC2CCN(c3cccnc3)CC2C1 (centres unmarked) [TCMDC-143422] | 0,99 |  | 1.52 µM | -1,038 | 1,19 | ≤ 10 µM |  |  |  | -1,206 | 81.1% | 80.2% |  | IC50 [1, 3]: 10.5 µM; inhibition [2]: 93.9%; inhibition at 25 µM [2]: 78.8%
9 | CCOC(=O)c1cn[nH]c1S(=O)(=O)N1CCC1c1ccccc1 (centres unmarked) [TCMDC-143456] | 1,04 |  |  | -0,9597 | 1,10 | ≤ 10 µM |  |  | 14.7 µM | -1,247 | 66.2% | 69% |  | inhibition [2]: 97.7%; inhibition at 25 µM [2]: 89.1%
10 | COc1cc(Nc2nccc(Nc3onc(C)c3C)n2)cc(S(=O)(=O)C2CCOCC2)c1 [TCMDC-143462] | 0,13 | 6,29% | 15.5 µM | -0,9436 | 1,40 |  | 43,06% | 60,29% |  |  |  |  | 47,90% | 
11 | COc1ccc2ncc(Cl)c(CCN3CC[C@@H](NCc4cc5c(cn4)OCS5)[C@H](O)C3)c2n1 [TCMDC-143513] | 0,76 | 42,64% | 13.5 µM | -0,9734 | 1,07 |  | 65,65% | 70,48% | 28.3 µM | -0,8371 |  |  | 56,08% | 
12 | C[C@@H](Oc1cc(-n2cnc3ccc(O[C@H]4CCNC4)cc32)sc1C(N)=O)c1ccccc1Cl [TCMDC-143515] | 1,26 | 50,90% | 21.8 µM | -1,149 | 1,02 |  | 54,26% | 55,47% | 31.7 µM | -0,8447 |  |  | 40,42% | 
13 | CN(CC1CCCO1)S(=O)(=O)c1ccc(C(=O)Nc2nc(-c3ccccn3)cs2)cc1 (centres unmarked) [TCMDC-143551] | 0,99 | 41,97% | 13.8 µM | -1,834 | 1,14 |  | 65,04% | 74,11% | 34.5 µM | -1,562 |  |  | 42,28% | 
14 | Cc1cc(C)c(C#N)c(SCC(=O)c2ccc3c(c2)OCO3)n1 [TCMDC-143625] | 0,35 | 17,11% |  |  | 0,45 |  | 43,83% | 19,89% |  |  |  |  | 49,55% | 
